Results: patent US20260285850A1, “SUBSTITUTED OXAZOLIDINONES AND IMIDAZOLINONES AS HERBICIDES” (FMC CORPORATION, priority 2023, published 2026)

What was measured:
Format in all cases: in vivo
soybean (Glycine max) [1] = assay: Test A postemergence application, visual injury rating 0-100
How it was run: (§1)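 Grow plants in loam soil blended with sand. Apply formulated compound (non-phytotoxic solvent, surfactant) as a directed soil spray before emergence, or to plants at the one- to two-leaf stage after emergence. Hold in greenhouse 10 days, then rate injury visually versus untreated controls on a 0-100 scale.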

[2] = test system: green foxtail (Setaria viridis); assay: as above
How it was run: as §1

kochia (Bassia scoparia) [3] = assay: as above
How it was run: as §1

[4] = test system: palmer (palmer amaranth, palmer pigweed, Amaranthus palmeri); assay: as above
How it was run: as §1

[5] = test system: blackgrass (Alopecurus myosuroides); assay: as above
How it was run: as §1

[6] = test system: wheat (Triticum aestivum); assay: as above
How it was run: as §1

[7] = test system: galium (catchweed bedstraw, Galium aparine); assay: as above
How it was run: as §1

[8] = test system: barnyardgrass (Echinochloa crus-galli); assay: as above
How it was run: as §1

[9] = test system: ryegrass, Italian (italian ryegrass, Lolium multiflorum); assay: as above
How it was run: as §1

[10] = test system: ragweed (common ragweed, Ambrosia artemisiifolia); assay: as above
How it was run: as §1

[11] = test system: oat, wild (wild oat, Avena fatua); assay: as above
How it was run: as §1

corn (Zea mays) [12] = assay: as above
How it was run: as §1

[13] = test system: ducksalad (Heteranthera limosa); assay: Test B flooded paddy test, visual plant response rating 0-100; details: 250 g ai/ha, Flood, applied to paddy water, evaluated after 13 days
How it was run: (§2)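 Plants were grown to the 2-leaf stage, then pots were flooded to 3 cm above the soil and compound was applied directly to the paddy water, with that depth kept throughout.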

[14] = test system: barnyardgrass (Echinochloa crusgalli); assay: as above; details: 250 g ai/ha, Flood, applied to paddy water, evaluated after 13 days
How it was run: as §2

rice (Oryza sativa) = assay: as above; details: 250 g ai/ha, Flood, applied to paddy water, evaluated after 13 days
How it was run: as §2

[15] = test system: sedge, umbrella (small-flower umbrella sedge, Cyperus difformis); assay: as above; details: 250 g ai/ha, Flood, applied to paddy water, evaluated after 13 days
How it was run: as §2

soybean (Glycine max) [16] = assay: Test A preemergence soil spray, visual injury rating 0-100; details: 10 days
How it was run: as §1

[17] = test system: green foxtail (Setaria viridis); assay: as above; details: 10 days
How it was run: as §1

kochia (Bassia scoparia) [18] = assay: as above; details: 10 days
How it was run: as §1

[19] = test system: palmer (palmer amaranth, palmer pigweed, Amaranthus palmeri); assay: as above; details: 10 days
How it was run: as §1

[20] = test system: blackgrass (Alopecurus myosuroides); assay: as above; details: 10 days
How it was run: as §1

[21] = test system: wheat (Triticum aestivum); assay: as above; details: 10 days
How it was run: as §1

[22] = test system: barnyardgrass (Echinochloa crus-galli); assay: as above; details: 10 days
How it was run: as §1

[23] = test system: ryegrass, Italian (italian ryegrass, Lolium multiflorum); assay: as above; details: 10 days
How it was run: as §1

[24] = test system: ragweed (common ragweed, Ambrosia artemisiifolia); assay: as above; details: 10 days
How it was run: as §1

[25] = test system: oat, wild (wild oat, Avena fatua); assay: as above; details: 10 days
How it was run: as §1

corn (Zea mays) [26] = assay: as above; details: 10 days
How it was run: as §1

[27] = 62 g ai/ha, postemergence, 10 days, 0 = no effect, 100 = complete control
[28] = Postemergence, 16 g ai/ha, greenhouse 10 days, 0 no effect, 100 complete control
[29] = 62 g ai/ha, 0 = no effect, 100 = complete control

C=CC1(C(=O)NC2COC(C(=O)OC)C2)CN(c2cc(F)cc(F)c2)C(=O)O1 (centres unmarked) [Compound 171]
80: Soybean plant response rating (0-100) (soybean (Glycine max) [1]; [27]) | Foxtail, Green plant response rating (0 to 100 scale) [2, 28] | Kochia plant response rating (0-100) (kochia (Bassia scoparia) [3]; [27]) | Pigweed, Palmer plant response rating (0-100) [4, 27] | Wheat plant response rating (0 to 100 scale) [6, 28] | Galium plant response rating (0-100) [7, 27] | Galium plant response rating (0 to 100 scale) [7, 28] | Barnyardgrass plant response rating (0-100) [8, 27] | Corn plant response rating (0 to 100 scale) (corn (Zea mays) [12]; [28])
0: Soybean plant response rating (soybean (Glycine max) [16]; 16 g ai/ha, 0 to 100 scale) | Foxtail, Green plant response rating ([17]; 16 g ai/ha, 0 to 100 scale) | Pigweed, Palmer plant response rating ([19]; 16 g ai/ha, 0 to 100 scale) | Barnyardgrass plant response rating ([22]; 16 g ai/ha, 0 to 100 scale) | Ragweed plant response rating ([24]; 16 g ai/ha, 0 to 100 scale) | Ragweed plant response rating (0-100) [24, 29] | Corn plant response rating (corn (Zea mays) [26]; 16 g ai/ha, 0 to 100 scale)
90: Foxtail, Green plant response rating (0-100) [2, 27] | Wheat plant response rating (0-100) [6, 27] | Oat, Wild plant response rating (0-100) [11, 27] | Oat, Wild plant response rating (0 to 100 scale) [11, 28] | Corn plant response rating (0-100) (corn (Zea mays) [12]; [27]) | Foxtail, Green plant response rating (0-100) [17, 29] | Blackgrass plant response rating (0-100) [20, 29] | Wheat plant response rating (0-100) [21, 29] | Barnyardgrass plant response rating (0-100) [22, 29] | Ryegrass, Italian plant response rating (0-100) [23, 29] | Oat, Wild plant response rating (0-100) [25, 29]
50: Plant response rating, Ducksalad (0 to 100 scale, 0 is no effect and 100 is complete control) [13]
30: Ragweed plant response rating (0-100) [10, 27] | Ragweed plant response rating (0 to 100 scale) [10, 28] | Kochia plant response rating (kochia (Bassia scoparia) [18]; 16 g ai/ha, 0 to 100 scale)
40: Kochia plant response rating (0-100) (kochia (Bassia scoparia) [18]; [29]) | Corn plant response rating (0-100) (corn (Zea mays) [26]; [29])
70: Soybean plant response rating (0 to 100 scale) (soybean (Glycine max) [1]; [28]) | Blackgrass plant response rating (0-100) [5, 27] | Blackgrass plant response rating (0 to 100 scale) [5, 28] | Barnyardgrass plant response rating (0 to 100 scale) [8, 28] | Ryegrass, Italian plant response rating (0-100) [9, 27] | Pigweed, Palmer plant response rating (0-100) [19, 29]
60: Kochia plant response rating (0 to 100 scale) (kochia (Bassia scoparia) [3]; [28]) | Pigweed, Palmer plant response rating (0 to 100 scale) [4, 28] | Plant response rating, Barnyardgrass (0 to 100 scale, 0 is no effect and 100 is complete control) [14] | Wheat plant response rating ([21]; 16 g ai/ha, 0 to 100 scale)
20: Ryegrass, Italian plant response rating (0 to 100 scale) [9, 28] | Soybean plant response rating (0-100) (soybean (Glycine max) [16]; [29]) | Blackgrass plant response rating ([20]; 16 g ai/ha, 0 to 100 scale) | Ryegrass, Italian plant response rating ([23]; 16 g ai/ha, 0 to 100 scale) | Oat, Wild plant response rating ([25]; 16 g ai/ha, 0 to 100 scale)
45: Plant response rating, Rice (0 to 100 scale, 0 is no effect and 100 is complete control) (rice (Oryza sativa)) | Plant response rating, Sedge, Umbrella (0 to 100 scale, 0 is no effect and 100 is complete control) [15]
